# Assay results reported in US7855205B2, “Pyrimidinyl substituted fused-pyrrolyl compounds useful in treating kinase disorders” (Janssen Pharmaceutica NV, priority 2004, dated 2010).
# Like-named read-outs stand apart in the source and are kept apart here.
# Experiments:
# [1] = target: T1, CDK1:Cyclin-B (Homo sapiens, UniProt P06493); assay: CDK1 Screening Assay; assay type: biochemical; details: 33P-γ-ATP incorporation, 10 μM ATP
# T1 construct: purchased New England Biolabs, Beverly, Mass; 6020; host or cells: insect cells
# T1 sequence (P06493 whole entry): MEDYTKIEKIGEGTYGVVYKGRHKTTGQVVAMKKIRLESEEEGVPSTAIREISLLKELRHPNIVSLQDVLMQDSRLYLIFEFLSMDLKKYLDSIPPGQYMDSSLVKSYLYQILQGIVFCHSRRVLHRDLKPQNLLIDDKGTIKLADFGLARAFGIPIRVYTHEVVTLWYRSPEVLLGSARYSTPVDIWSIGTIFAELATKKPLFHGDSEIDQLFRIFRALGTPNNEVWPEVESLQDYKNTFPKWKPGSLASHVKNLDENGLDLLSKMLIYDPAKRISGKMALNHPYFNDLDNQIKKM
# T1 sequence (P14635 whole entry partner): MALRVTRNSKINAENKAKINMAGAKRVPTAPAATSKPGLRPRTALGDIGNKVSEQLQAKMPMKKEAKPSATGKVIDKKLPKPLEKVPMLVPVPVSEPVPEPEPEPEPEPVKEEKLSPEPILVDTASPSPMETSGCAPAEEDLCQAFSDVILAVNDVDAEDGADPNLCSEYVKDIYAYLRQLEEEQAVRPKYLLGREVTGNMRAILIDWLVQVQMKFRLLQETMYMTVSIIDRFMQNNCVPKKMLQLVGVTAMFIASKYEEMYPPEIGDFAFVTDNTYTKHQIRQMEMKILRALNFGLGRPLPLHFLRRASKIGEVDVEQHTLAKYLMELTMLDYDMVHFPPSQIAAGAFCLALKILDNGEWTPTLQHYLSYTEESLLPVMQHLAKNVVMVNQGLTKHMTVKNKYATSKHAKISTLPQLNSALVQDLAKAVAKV
# Description: (§1) A kinase reaction mixture was prepared containing 50 mM Tris-HCl pH=8, 10 mM MgCl2, 0.1 mM […], 1 mM DTT, 10 μM ATP, 0.025 μM biotinylated histone-HI peptide substrate and […] per well ^33P-γ-ATP (2000-3000 Ci/mmol). 70 μL of the kinase reaction mixture was dispensed into the well of a streptavidin coated FlashPlate™ (Cat. # SMP103, NEN, Boston, Mass.). Then 1 μL of test compound stock in 100% DMSO was added to the wells resulting in a final concentration of 1% DMSO in the reaction with a 100 μL final reaction volume.
# (§2) The CDK1:Cyclin-B protein was then diluted in 50 mM Tris-HCl pH=8.0, 0.1% BSA at a concentration of 1 ng per μL and 30 μL (30 ng enzyme per test well) was added to each well to initiate the reaction. The reaction was incubated for one hour at 30° C. At the end of the 1 h incubation, the reaction was terminated by aspirating the mixture from the plate and washing the wells twice with PBS containing 100 mM EDTA. The histone-H1 biotinylated peptide substrate became immobilized on the Flashplate™ and the incorporation of ^33P-γ-ATP was measured by reading the plate on a scintillation counter. Inhibition of the enzymatic activity of CDK1 was measured by observing a reduced amount of ^33P-γ-ATP incorporated into the immobilized peptide.
# The CDK1 used was isolated from insect cells expressing both the human CDK1 catalytic subunit and its positive regulatory subunit cyclin B (New England Biolabs, Beverly, Mass., Cat. #6020).
# (§3) • VEGF-R2, HER2 and (Biotin)[…]-Amide • RET kinases • CDK1 (Biotin)[…]-Amide • Aurora-A kinase Biotin-[…]-Amide
# [2] = target: T2, VEGF-R2 (Rattus norvegicus, UniProt O08775); assay: VEGF-R2 Screening Assay; assay type: biochemical; details: 33P-γ-ATP incorporation, 10 μM ATP
# T2 construct: polyhistidine (N)
# T2 sequence (O08775 786-1343): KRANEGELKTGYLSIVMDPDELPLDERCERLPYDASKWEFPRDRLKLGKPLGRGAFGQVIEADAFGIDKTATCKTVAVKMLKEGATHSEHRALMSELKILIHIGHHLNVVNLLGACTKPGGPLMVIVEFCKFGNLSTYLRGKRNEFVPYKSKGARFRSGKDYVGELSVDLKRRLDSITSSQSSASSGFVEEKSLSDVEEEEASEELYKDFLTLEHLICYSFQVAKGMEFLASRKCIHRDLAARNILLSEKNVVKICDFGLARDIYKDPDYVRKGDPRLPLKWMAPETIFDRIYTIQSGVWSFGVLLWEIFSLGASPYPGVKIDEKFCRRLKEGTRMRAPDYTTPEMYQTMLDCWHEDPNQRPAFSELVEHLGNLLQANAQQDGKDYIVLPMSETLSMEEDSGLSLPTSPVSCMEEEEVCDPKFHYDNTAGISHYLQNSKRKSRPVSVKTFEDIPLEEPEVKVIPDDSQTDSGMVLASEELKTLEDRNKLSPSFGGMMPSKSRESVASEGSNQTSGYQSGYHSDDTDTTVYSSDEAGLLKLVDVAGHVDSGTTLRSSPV
# Description: as §2, with “Then 1 μL of test compound stock in 100% DMSO was added to the wells resulting in a final concentration of 1% DMSO in the reaction with a 100 μL final reaction volume. The CDK1:Cyclin-B” for “The CDK1:Cyclin-B”, “immobilized peptide. The VEGF-R kinase assay was carried out using the CDK kinase assay procedure except that the enzyme was replaced with the VEGF-R2 fusion protein containing a polyhistidine tag at the N-terminus followed by amino acids 786-1343 of the rat VEGF-R2 kinase domain (GenBank Accession #U93306).” for “immobilized peptide.”
# [3] = target: T3, Aurora-A (Mus musculus, UniProt P97477); assay: Aurora-A Screening Assay; assay type: biochemical, murine; details: 33P-γ-ATP incorporation, 10 μM ATP
# T3 construct: made in house; host or cells: sf9 insect cells
# T3 sequence (P97477 1-395): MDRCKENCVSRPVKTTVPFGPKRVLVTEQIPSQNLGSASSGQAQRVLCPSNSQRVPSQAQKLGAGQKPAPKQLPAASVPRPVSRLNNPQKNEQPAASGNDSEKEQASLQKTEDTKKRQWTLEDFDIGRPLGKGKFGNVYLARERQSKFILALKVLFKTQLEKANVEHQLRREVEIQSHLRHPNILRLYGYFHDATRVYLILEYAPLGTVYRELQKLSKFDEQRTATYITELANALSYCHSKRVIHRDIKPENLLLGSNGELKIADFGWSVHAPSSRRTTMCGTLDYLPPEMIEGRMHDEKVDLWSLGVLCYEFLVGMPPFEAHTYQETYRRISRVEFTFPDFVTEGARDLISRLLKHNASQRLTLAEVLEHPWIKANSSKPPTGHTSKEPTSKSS
# Description: as §1, §2
# The Aurora-A kinase assay was carried out using the CDK kinase assay procedure except that the enzyme was replaced with the full length protein encoding the murine Aurora-A (Accession# GB BC014711) expressed and purified from sf9 insect cells.
# as §3
# [4] = system: HeLa cervical adenocarcinoma; assay: Inhibition of cell proliferation (14C-thymidine incorporation), HeLa; assay type: cell-based;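 further: HeLa cells in 96-well scintillating plates, compound for 24 h then 24 h more with 14C-thymidine, counting label built into new DNA against DMSO-only control wells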
# [5] = system: HCT-116 colon carcinoma; assay: Inhibition of cell proliferation (14C-thymidine incorporation), HCT-116; assay type: cell-based
# Description: (§4) The ability of a test compound to inhibit the proliferation of cell growth was determined by measuring incorporation of ^14C-labelled thymidine into newly synthesized DNA within the cells. This method was used on cell lines derived from carcinomas originating from several tissues such as HeLa cervical adenocarcinoma (American Type Culture Collection (ATCC), Virginia, Cat. #CCL-2), A375 malignant melanoma (ATCC CRL-1619), HCT-116 colon carcinoma (CCL-247). In this way the effect of a compound on cell growth of cells with many different phenotypes can be determined. Cells were trypsinized and counted and 3000-8000 cells were added to each well of a 96-well CytoStar tissue culture treated scintillating microplate (Amersham #RPNQ0160) in complete medium in a volume of 100 μL. Cells were incubated for 24 hours in complete medium at 37° C. in an atmosphere containing 5% CO2.
# (§5) Next, 1 μL of test compound in 100% DMSO was added to the wells of the plate. DMSO only was added to control wells. Cells were incubated for 24 more hours in complete medium at 37° C. in an atmosphere containing 5% CO2. Methyl ^14C-thymidine 56 mCi/mmol (NEN #NEC568 or Amersham #CFA532) was diluted in complete medium and 0.2 uCi/well was added to each well of the CytoStar plate in a volume of 20 μl. The plate was incubated for 24 hours at 37° C. plus 5% CO2 in drug plus ^14C-thymidine. The contents of the plate discarded into a ^14C radioactive waste container by inverting the plate and the plate was washed twice with 200 μL PBS.
# (§6) 200 μL of PBS is added to each well. The top of the plate was sealed with a transparent plate sealer and a white plate backing sealer (Packard #6005199) was applied to the bottom of the plate. The degree of methyl ^14C-thymidine incorporation was quantified on a Packard Top Count.
# [6] = system: A375 malignant melanoma; assay: Inhibition of cell proliferation (14C-thymidine incorporation), A375; assay type: cell-based, human
# Description: as §4, §5, §6
SMILES,IC50 [1] [µM],IC50 [2] [µM],IC50 [3] [µM],IC50 ([4]; Homo sapiens) [µM],"IC50 ([5]; Homo sapiens, HCT-116, HCT116) [µM]","IC50 ([6]; Homo sapiens, A-375) [µM]",IC50 [4] [µM],IC50 ([5]; HCT116) [µM],IC50 [6] [µM]
"CC1CCC(Nc2nccc(-c3c[nH]c4ncccc34)n2)CC1 (mixture of isomers) [Cpd 17, (4-Methyl-cyclohexyl)-[4-(1H-pyrrolo[2,3-b]pyridin-3-yl)-pyrimidin-2-yl]-amine]",0.012,3.81,0.312,0.0243,0.0208,0.014,–,–,–
"NC1CCC(Nc2nccc(-c3c[nH]c4ncccc34)n2)CC1 (mixture of isomers) [Cpd 43, (4-Aminocyclohexyl)-[4-(1H-pyrrolo[2,3-b]pyridin-3-yl)-pyrimidin-2-yl]-amine]",0.0066,2.78,0.262,0.00292,0.00297,0.00242,–,–,–
"CN(C)CC(O)Cn1cc(-c2ccnc(N[C@H]3CC[C@H](O)CC3)n2)c2cccnc21 (relative stereo) [Cpd 76, trans-4-{4-[1-(3-Dimethylamino-2-hydroxy-propyl)-1H-pyrrolo[2,3-b]pyridin-3-yl]-pyrimidin-2-ylamino}-cyclohexanol]",1.35,10,–,0.21,0.157,0.298,–,–,–
"Cc1ccccc1Nc1nccc(-c2c[nH]c3ncccc23)n1 [Cpd 8, [4-(1H-Pyrrolo[2,3-b]pyridin-3-yl)-pyrimidin-2-yl]-o-tolyl-amine]",0.0037,0.57,0.301,–,0.024,0.024,–,–,–
"Cc1cccc(Nc2nccc(-c3c[nH]c4ncccc34)n2)c1 [Cpd 9, [4-(1H-Pyrrolo[2,3-b]pyridin-3-yl)-pyrimidin-2-yl]-m-tolyl-amine]",0.057,0.0967,0.136,–,0.25,0.34,–,–,–
"c1cnc2[nH]cc(-c3ccnc(NC4CCCCC4)n3)c2c1 [Cpd 13, Cyclohexyl-[4-(1H-pyrrolo[2,3-b]pyridin-3-yl)-pyrimidin-2-yl]-amine]",0.014,2.08,0.263,0.031,0.032,0.033,–,–,–
"Clc1ccc(Nc2nccc(-c3c[nH]c4ncccc34)n2)c(Cl)c1 [Cpd 36, (2,4-Dichlorophenyl)-[4-(1H-pyrrolo[2,3-b]pyridin-3-yl)-pyrimidin-2-yl]-amine]",0.0223,–,1,0.467,0.277,0.448,–,–,–
Cc1cc(CCO)ccc1Nc1nccc(-c2c[nH]c3ncccc23)n1 [Cpd 44],–,0.493,0.142,0.011,0.00398,0.00845,–,–,–
"Cn1cc(-c2ccnc(NC3CCCCC3)n2)c2cccnc21 [Cpd 66, Cyclohexyl-[4-(1-methyl-1H-pyrrolo[2,3-b]pyridin-3-yl)pyrimidin-2-yl]-amine]",–,–,–,52.2,≥ 10,≥ 10,–,–,–
"CN(C)CCn1cc(-c2ccnc(NC3CCCCC3)n2)c2cccnc21 [Cpd 69, Cyclohexyl-{4-[1-(2-dimethylaminoethyl)-1H-pyrrolo[2,3-b]pyridin-3-yl]-pyrimidin-2-yl}-amine]",10.4,–,–,8.9,13.4,7.69,–,–,–
"OCCn1cc(-c2ccnc(NC3CCCCC3)n2)c2cccnc21 [Cpd 70, Cyclohexyl-{4-[1-(2-hydroxyethyl)-1H-pyrrolo[2,3-b]pyridin-3-yl]-pyrimidin-2-yl}-amine]",3.21,–,–,6.29,3.97,5.93,–,–,–
"Cn1cc(-c2ccnc(N[C@H]3CC[C@H](O)CC3)n2)c2cccnc21 [Cpd 71, trans-4-[4-(1-Methyl-1H-pyrrolo[2,3-b]pyridin-3-yl)-pyrimidin-2-ylamino]-cyclohexanol]",1.65,–,–,9.51,4.46,7.15,–,–,–
"CNCCn1cc(-c2ccnc(N[C@H]3CC[C@H](O)CC3)n2)c2cccnc21 [Cpd 73, trans-4-{4-[1-(2-Methylaminoethyl)-1H-pyrrolo[2,3-b]pyridin-3-yl]-pyrimidin-2-ylamino}-cyclohexanol]",7.02,–,–,4.16,3.51,3.95,–,–,–
"CN(C)CCn1cc(-c2ccnc(N[C@H]3CC[C@H](O)CC3)n2)c2cccnc21 [Cpd 74, trans-4-{4-[1-(2-Dimethylaminoethyl)-1H-pyrrolo[2,3-b]pyridin-3-yl]-pyrimidin-2-ylamino}-cyclohexanol]",3.89,–,–,4.53,3.76,3.02,–,–,–
"O=S(=O)(c1ccccc1)n1cc(-c2ccnc(N[C@H]3CC[C@H](O)CC3)n2)c2cccnc21 [Cpd 75, trans-4-[4-(1-Benzenesulfonyl-1H-pyrrolo[2,3-b]pyridin-3-yl)-pyrimidin-2-ylamino]-cyclohexanol]",2.02,–,10,–,–,–,1.99,1.58,2.81
"CNCCOc1ccc(Nc2nccc(-c3c[nH]c4ncccc34)n2)c(C)c1 [Cpd 80, [4-(2-Methylamino-ethoxy)-2-methyl-phenyl]-[4-(1H-pyrrolo[2,3-b]pyridin-3-yl)-pyrimidin-2-yl]-amine]",2.31,10,–,2.58,3.87,4.54,–,–,–
"Cc1cc(OCCN(C)C)ccc1Nc1nccc(-c2c[nH]c3ncccc23)n1 [Cpd 81, [4-(2-Dimethylamino-ethoxy)-2-methyl-phenyl]-[4-(1H-pyrrolo[2,3-b]pyridin-3-yl)-pyrimidin-2-yl]-amine]",1.87,–,–,13.2,4.54,2.81,–,–,–
